# Results from ChEMBL document CHEMBL1155405, “Rigidified 2-aminopyrimidines as histamine H4 receptor antagonists: effects of substitution about the rigidifying ring” (Bioorg Med Chem Lett, 2010).
# What was measured:
# [1] = target: Histamine H4 receptor (Rattus norvegicus) (UniProt Q91ZY1); assay: Antagonist activity at rat histamine H4 receptor assessed as decrease in intracellular calcium by FLIPR; type: functional, cell-based
# Histamine H4 receptor [2] = target: T1, Histamine H4 receptor (Homo sapiens, UniProt Q9H3N8); conditions: HEK293
# [3] = target: Histamine H4 receptor (Rattus norvegicus) (UniProt Q91ZY1); assay: Antagonist activity at rat histamine H4 receptor assessed as decrease in intracellular calcium by FLIPR relative to histamine; type: functional, cell-based; parameters: concentration or dose not given beside the values
# [4] = Lipophilicity, log D at pH7.5; type: physicochemical; conditions: buffer, pH 7.5
# Histamine H4 receptor [5] = target: T1, Histamine H4 receptor; assay: Displacement of [3H]-histamine from human histamine H4 receptor expressed in HEK293 cells after 1 hr by liquid scintillation counting; type: cell-based
# Histamine H4 receptor [6] = target: Histamine H4 receptor (Rattus norvegicus, UniProt Q91ZY1); assay: Displacement of [3H]-histamine from rat histamine H4 receptor after 1 hr by liquid scintillation counting
# Histamine H3 receptor [7] = target: Histamine H3 receptor (Homo sapiens, UniProt Q9Y5N1); assay: Displacement of [3H]NAMH from human histamine H3 receptor expressed in C6 cells after 1 hr by liquid scintillation counting; type: cell-based
# Histamine H3 receptor [8] = target: Histamine H3 receptor (Rattus norvegicus, UniProt Q9QYN8); assay: Displacement of [3H]NAMH from rat histamine H3 receptor expressed in C6 cells after 1 hr by liquid scintillation counting; type: cell-based
# Mus musculus = assay: Inhibition of clobenpropit-induced scratching in hind paw of ip dosed mouse administered 30 mins before; type: functional
# [9] = target: T2, Histamine H4 receptor (Mus musculus) (UniProt Q91ZY2); assay: Antagonist activity at mouse histamine H4 receptor assessed as decrease in intracellular calcium by FLIPR; type: functional, cell-based
# T2 sequence (whole entry): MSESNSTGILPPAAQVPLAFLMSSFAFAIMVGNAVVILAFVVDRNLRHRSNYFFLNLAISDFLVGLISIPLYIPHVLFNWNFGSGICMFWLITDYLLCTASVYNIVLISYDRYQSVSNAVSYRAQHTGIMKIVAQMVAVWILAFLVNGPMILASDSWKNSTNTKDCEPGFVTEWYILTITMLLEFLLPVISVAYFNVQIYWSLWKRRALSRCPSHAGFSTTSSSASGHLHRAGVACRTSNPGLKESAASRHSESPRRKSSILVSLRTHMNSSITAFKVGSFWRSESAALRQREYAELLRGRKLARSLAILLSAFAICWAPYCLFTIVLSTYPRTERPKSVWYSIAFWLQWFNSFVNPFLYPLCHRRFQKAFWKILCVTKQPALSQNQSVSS
# Histamine H4 receptor [10] = target: T1, Histamine H4 receptor; assay: Agonist activity at human histamine H4 receptor expressed in HEK293 cells coexpressing Galphaqi5 assessed as increase in intracellular calcium by FLIPR relative to histamine
# Sequence of Histamine H3 receptor (Homo sapiens, UniProt Q9Y5N1) (Q9Y5N1 whole entry): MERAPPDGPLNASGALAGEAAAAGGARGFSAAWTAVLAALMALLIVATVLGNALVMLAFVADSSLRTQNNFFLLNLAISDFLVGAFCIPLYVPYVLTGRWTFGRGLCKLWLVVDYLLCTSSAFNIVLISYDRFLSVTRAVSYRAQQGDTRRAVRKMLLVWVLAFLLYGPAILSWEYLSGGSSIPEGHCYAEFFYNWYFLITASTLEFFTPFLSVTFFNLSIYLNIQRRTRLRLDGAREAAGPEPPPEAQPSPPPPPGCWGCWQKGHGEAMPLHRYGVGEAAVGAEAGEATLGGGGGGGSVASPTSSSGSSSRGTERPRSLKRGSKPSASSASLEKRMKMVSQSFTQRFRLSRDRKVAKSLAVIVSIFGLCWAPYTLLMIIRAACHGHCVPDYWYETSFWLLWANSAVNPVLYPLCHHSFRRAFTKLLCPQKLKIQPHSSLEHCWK
# Sequence of Histamine H4 receptor (Rattus norvegicus) (Q91ZY1 whole entry): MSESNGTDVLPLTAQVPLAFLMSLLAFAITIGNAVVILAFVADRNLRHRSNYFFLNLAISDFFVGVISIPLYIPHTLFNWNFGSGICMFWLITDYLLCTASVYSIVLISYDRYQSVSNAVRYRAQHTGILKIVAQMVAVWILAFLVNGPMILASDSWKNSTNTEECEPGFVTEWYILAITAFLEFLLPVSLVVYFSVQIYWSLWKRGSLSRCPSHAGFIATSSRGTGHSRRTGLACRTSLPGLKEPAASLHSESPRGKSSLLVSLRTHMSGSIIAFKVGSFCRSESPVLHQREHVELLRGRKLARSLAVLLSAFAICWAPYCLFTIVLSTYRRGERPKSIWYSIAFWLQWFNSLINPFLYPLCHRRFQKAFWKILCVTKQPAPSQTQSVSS
# Sequence of Histamine H4 receptor (Rattus norvegicus, UniProt Q91ZY1) (Q91ZY1 whole entry): as above
# T1 sequence (Q9H3N8 whole entry): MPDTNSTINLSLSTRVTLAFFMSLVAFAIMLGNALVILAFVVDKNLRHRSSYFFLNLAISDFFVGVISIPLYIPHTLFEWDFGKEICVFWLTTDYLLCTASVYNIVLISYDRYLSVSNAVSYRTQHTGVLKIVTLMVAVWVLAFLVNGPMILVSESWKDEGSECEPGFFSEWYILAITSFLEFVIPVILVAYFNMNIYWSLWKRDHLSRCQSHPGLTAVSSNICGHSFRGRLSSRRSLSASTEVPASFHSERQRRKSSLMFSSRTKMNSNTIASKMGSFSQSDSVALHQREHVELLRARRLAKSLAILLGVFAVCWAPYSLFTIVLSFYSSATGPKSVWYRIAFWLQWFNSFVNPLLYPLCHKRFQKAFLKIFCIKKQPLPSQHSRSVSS
# Sequence of Histamine H3 receptor (Rattus norvegicus, UniProt Q9QYN8) (Q9QYN8 whole entry): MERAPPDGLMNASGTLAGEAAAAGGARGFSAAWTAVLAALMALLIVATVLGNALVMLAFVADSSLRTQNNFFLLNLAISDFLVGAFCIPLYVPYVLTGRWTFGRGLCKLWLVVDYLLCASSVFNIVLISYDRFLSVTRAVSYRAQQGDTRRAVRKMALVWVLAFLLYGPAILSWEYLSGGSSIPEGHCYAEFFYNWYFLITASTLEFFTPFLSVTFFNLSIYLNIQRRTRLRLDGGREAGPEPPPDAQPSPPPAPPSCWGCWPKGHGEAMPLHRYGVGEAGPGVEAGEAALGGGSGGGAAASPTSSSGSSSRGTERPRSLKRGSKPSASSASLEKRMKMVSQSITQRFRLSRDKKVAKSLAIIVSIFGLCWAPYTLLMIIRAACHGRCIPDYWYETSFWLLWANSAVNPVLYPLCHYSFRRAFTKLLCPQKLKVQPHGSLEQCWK
structure (smiles),measurement,setting,value
Nc1nc(N2CCNCC2)c2c(n1)C1(CCCC1)CCC2,pKb,[1],5.42
same,pKb,Histamine H4 receptor [2],8.56
same,Activity,[3],87%
same,logD,[4],2.2
CN1CCC(Nc2nc(N)nc3c2CCCC32CCCC2)CC1,pKb,[1],6.9
same,pKb,Histamine H4 receptor [2],7.66
same,Activity,[3],84%
Nc1nc2c(c(N3CC4CCCNC4C3)n1)CCCCC2c1ccccc1 (stereo not given),Ki,Histamine H4 receptor [5],7.08 nM
same,pKb,Histamine H4 receptor [2],7.59
same,Ki,Histamine H4 receptor [6],2.69 nM
Nc1nc2c(c(N3CCNCC3)n1)CCCCC2c1ccccc1 (stereo not given),Ki,Histamine H3 receptor [7],2240 nM
same,pKb,[1],7.26
same,pKb,Histamine H4 receptor [2],7.24
same,Ki,Histamine H3 receptor [8],661 nM
same,logD,[4],1.73
same,ED50,Mus musculus,10 µmol/kg
same,pKb,[9],7.34
Nc1nc(N2C[C@H]3CCCN[C@H]3C2)c2c(n1)C1(CCCC1)CCC2,pKb,[1],< 6.6
same,pKb,Histamine H4 receptor [2],8.07
same,Activity,[3],35%
Nc1nc(N2CC[C@@H](N)C2)c2c(n1)C1(CCCC1)CCC2,Ki,Histamine H3 receptor [7],295 nM
same,pKb,[1],6.76
same,pKb,Histamine H4 receptor [2],8.57
same,Ki,Histamine H3 receptor [8],79.4 nM
same,Activity,[3],71%
same,ED50,Mus musculus,1 µmol/kg
same,pKb,[9],7.82
Nc1nc(N2CC[C@@H](N)C2)c2c(n1)C1(CCC2)Cc2ccccc2C1,pKb,[1],6.09
same,pKb,Histamine H4 receptor [2],6.3
CNC1CN(c2nc(N)nc3c2CCCC32CCCC2)C1,Ki,Histamine H3 receptor [7],63.1 nM
same,pKb,[1],7.6
same,Ki,Histamine H4 receptor [5],1.51 nM
same,pKb,Histamine H4 receptor [2],8.34
same,Ki,Histamine H4 receptor [6],1.45 nM
same,Ki,Histamine H3 receptor [8],6.76 nM
same,Activity,[3],46%
same,logD,[4],1.6
CN[C@@H]1CCN(c2nc(N)nc3c2CCCC32CCCC2)C1,Ki,Histamine H3 receptor [7],105 nM
same,pKb,[1],7.48
same,Ki,Histamine H4 receptor [5],2 nM
same,pKb,Histamine H4 receptor [2],8.54
same,Ki,Histamine H4 receptor [6],2.63 nM
same,Ki,Histamine H3 receptor [8],72.4 nM
same,Activity,[3],58%
Nc1nc(N2C[C@H]3CNC[C@H]3C2)c2c(n1)C1(CCCC1)CCC2 (stereo in doubt; 34),pKb,[1],5.65
same,pKb,Histamine H4 receptor [2],5.99
same,Activity,[3],48%
Nc1nc(N2CCCNCC2)c2c(n1)C1(CCCC1)CCC2,pKb,[1],< 5.32
same,pKb,Histamine H4 receptor [2],8.01
same,Activity,[3],77%
Nc1nc2c(c(N3C[C@H]4CCCN[C@H]4C3)n1)CCCCC2c1ccccc1 (stereo not given in full),pKb,[1],8.24
same,pKb,Histamine H4 receptor [2],7.88
same,ED50,Mus musculus,3 µmol/kg
same,pKb,[9],7.9
CN[C@@H]1CCN(c2nc(N)nc3c2CCCC(c2ccccc2)C3)C1 (stereo not given in full),Ki,Histamine H3 receptor [7],224 nM
same,Ki,Histamine H3 receptor [8],105 nM
Nc1nc(N2C[C@H]3CNC[C@H]3C2)c2c(n1)C1(CCCC1)CCC2 (stereo in doubt; 33),pKb,[1],5.13
same,pKb,Histamine H4 receptor [2],5.96
same,Activity,[3],53%
COC(=O)C1(N)CCN(c2nc(N)nc3c2CCCC32CCCC2)CC1,pKb,[1],4.77
same,pKb,Histamine H4 receptor [2],4.9
same,Activity,[3],52%
Nc1nc(N2CC[C@@H](N)C2)c2c(n1)C1(CCCCC1)CCC2,pKb,[1],< 4.96
same,pKb,Histamine H4 receptor [2],7.33
same,Activity,[3],84%
Nc1nc(N2CCC(N)(C(=O)O)CC2)c2c(n1)C1(CCCC1)CCC2,pKb,[1],< 4.68
same,pKb,Histamine H4 receptor [2],< 4.67
Nc1nc(N2CCNCC2)c2c(n1)C1(CCCCC1)CCC2,pKb,[1],< 4.86
same,pKb,Histamine H4 receptor [2],7.32
same,Activity,[3],105%
Nc1nc(N2CCNCC2)c2c(n1)C1(CCC2)Cc2ccccc2C1,pKb,[1],4.86
same,pKb,Histamine H4 receptor [2],4.57
same,Activity,[3],135%
same,Activity,Histamine H4 receptor [10],49%
Nc1nc(N2CC(N)C2)c2c(n1)C1(CCCC1)CCC2,pKb,[1],4.63
same,pKb,Histamine H4 receptor [2],< 4.16
same,Activity,[3],48%
CN(C)CCOc1nc(N)nc2c1CCCC21CCCC1,pKb,[1],< 6
same,pKb,Histamine H4 receptor [2],8.11
same,Activity,[3],88%
Nc1nc(N2C[C@H]3CCCN[C@H]3C2)c2c(n1)C1(CCCCC1)CCC2,pKb,[1],5.81
same,pKb,Histamine H4 receptor [2],7
same,Activity,[3],50%
CN1CCC(Oc2nc(N)nc3c2CCCC32CCCC2)CC1,pKb,[1],< 5.48
same,pKb,Histamine H4 receptor [2],7.7
same,Activity,[3],86%
CNC1CN(c2nc(N)nc3c2CCCCC3c2ccccc2)C1 (stereo not given),logD,[4],2.05
Nc1nc(N2CC[C@H](N)C2)c2c(n1)C1(CCCC1)CCC2,pKb,[1],6.87
same,pKb,Histamine H4 receptor [2],7.28
same,Activity,[3],63%
